Molecules are shown by their SMILES. Some results are limits rather than exact numbers.

For 46 compounds, AC50 results are on record in PubChem BioAssay AID743267 (Broad Institute, 2014).

The test system of the test is human bronchial epithelial cells, CFTR corrector, plate reader. The test can be described thus: rescue of ΔF508 CFTR function, airway epithelium – human bronchial epithelial cells, plate reader, cherry-pick, two tests, dose response (AID 743267).
Setting [1] is: measured here: test 2 replicate run.
Where [2] appears, read: measured here: test 1 replicate run.

For the compound `COc1ccc(S(=O)(=O)N(C(=O)C(C)C)c2ccc3oc(=O)sc3c2)cc1`, the AC50 (commonly the concentration giving half of the maximal activity seen) under setting [1] was 7.6 µM.
Take `O=C(NCc1ccccc1)C1Cc2c(-c3cccc(F)c3)ccnc2O1` (stereo unspecified): the AC50 under setting [1] was 0.893 µM.
Under setting [1], `O=P(Oc1ccc(-c2ccccc2)cc1)(N1CC1)N1CC1` showed a concentration at half-maximal activity (AC50) of over 50 µM.
The same measure, in the same setting: the result for `COc1ccc(N(C)S(=O)(=O)c2cccc(C(=O)NCC3CCCCC3)c2)cc1` reads 48.2 µM.
On to `Cc1ccc(C)c(CSc2nc3[nH]ncc3c(=O)[nH]2)c1`, for which the concentration at half-maximal activity (AC50) under setting [1] was 2.57 µM.
`O=S(=O)(c1ccc(Br)cc1)N1CCCc2ccccc21`: under setting [1], the AC50 was over 50 µM.
Compound `CN(Cc1ccccc1)S(=O)(=O)c1ccc(NC(=S)NC(=O)C2CCCC2)cc1` came in with an AC50 under setting [1] of 5.32 µM.
Under setting [1], `Cc1cc2c(cc1S(=O)(=O)Nc1ccc(F)cc1)n(C)c(=O)c(=O)n2C` returned a concentration at half-maximal activity (AC50) of 43.2 µM.
In the case of `Cc1ccc2c(c1)CCCN2C(=O)CCc1nc2ccccc2c(=O)[nH]1`, under setting [1], the concentration at half-maximal activity (AC50) was found to be 5.42 µM.
Same read-out and setting: then `COc1cccc(/C=N/Nc2ncnc(Cl)c2N)c1O`, with 12.8 µM.
Compound `CC(Sc1nc2ccccc2c(=O)n1C)C(=O)Nc1ccc2c(c1)OCCO2` (stereo unspecified) came in with an AC50 under setting [1] of over 50 µM.
As for `CC(=O)Nc1ccc(-c2csc(NC(=O)CN3C(=O)NC4(CCCC4)C3=O)n2)cc1`, the half-maximal activity concentration (AC50) under setting [1] was over 50 µM.
On to `COc1ccc(/C=C2\SC(=O)N(CCNC(=O)C3=COCCO3)C2=O)cc1`, for which, under setting [1], the AC50 worked out at 1.84 µM.
For `C[C@@H]1CN([C@@H](C)CO)C(=O)Cc2cc(N(C)C)ccc2O[C@@H]1CN(C)Cc1ccc(C(=O)Nc2ccccc2N)cc1`, the AC50 under setting [2] is 10.3 µM.
The compound `COc1ccc2cc(CN(CC3CCCO3)C(=S)Nc3ccccc3)c(=O)[nH]c2c1` (stereo unspecified) had an AC50 under setting [1] of over 50 µM.
Regarding `COc1ccc(OC)c(-c2cc(-c3cccnc3)nc(N)c2C#N)c1`, the concentration at half-maximal activity (AC50) under setting [1] worked out at 2.43 µM.
Under setting [2], `CO[C@@H](CN(C)S(=O)(=O)c1ccc(C)cc1)[C@H](C)CN([C@@H](C)CO)S(=O)(=O)c1cccc(Cl)c1` gave an AC50 of 5.49 µM.
In the case of `COc1ccc(COc2cc(-c3cccc(OC)c3)nc3ccc(NC(=O)c4ccc(OC)cc4)cc23)cc1`, the AC50 under setting [1] amounted to 1.89 µM.
`O=C(Cc1ccc(Br)cc1)NCc1ccccc1`: the AC50 under setting [1] stood at 4.85 µM.
In the case of `O=C1c2cccc3c(N4CCCCC4)ccc(c23)C(=O)N1c1cccc(O)c1`, the AC50 under setting [1] is 24.3 µM.
In the case of `Nc1ccc2ccc3cccc[n+]3c2c1`, the AC50 under setting [1] turned out to be 21.3 µM.
The same measure, in the same setting: then `Cc1cc(C(=O)N/N=C/c2ccc(N(C)C)cc2)c2ccccc2n1`, with 5.44 µM; and `O=C(NCCOc1ccccc1)c1cc([N+](=O)[O-])ccc1N1CCOCC1`, with 2.66 µM.
On the same count and under the same terms, the result for `Cc1ccc(C2NC(=O)c3ccccc3N2)c(C)c1` (stereo unspecified) reads 5.08 µM; that for `CCN(CC)c1ccc(/C=C(/C#N)c2nc3ccc(C)cc3[nH]2)c(OC(C)C)c1`, 9.34 µM; that for `CNC(=O)C1CC(=O)N(c2ccc(OCC(=O)Nc3ccccc3)cc2)C1` (stereo unspecified), over 50 µM.
`CCOC(=O)c1cc2c(=Cc3ccc(N(C)C)cc3)c3ccccc3n2[n+]1C`: under setting [1], the AC50 amounted to 5.09 µM.
`Cc1cccc2c(N=Nc3ccc(S(=O)(=O)Nc4ccc(Cl)cc4)cc3[N+](=O)[O-])c(O)[nH]c12`: the half-maximal activity concentration (AC50) under setting [1] was over 50 µM.
On to `CCOC(=O)[C@]12CCCC=C1N(Cc1cccc3ccccc13)C(=O)[C@H](CC(=O)NCc1cccc(C(F)(F)F)c1)C2`, for which, under setting [1], the AC50 came to 30 µM.
`Cc1cc(C(=O)NNC(=O)c2ccc(Cl)c(S(N)(=O)=O)c2)c(C)o1`: the AC50 under setting [1] came out at 6.93 µM.
`Cn1nccc1C(=O)N/N=C/c1c(O)ccc2ccccc12` had an AC50 under setting [1] of 19.2 µM.
As for `CC(OC(=O)CCCC(=O)Nc1ccc(F)cc1)C(=O)c1ccccc1` (stereo unspecified), the half-maximal activity concentration (AC50) under setting [1] was over 50 µM.
Under setting [1], `NCC(=O)NNC(=O)OCC1c2ccccc2-c2ccccc21` returned an AC50 of 7.38 µM.
`COc1ccc([C@H]2CC(=O)C=C(c3c(OC)cccc3OC)C2)cc1` registered a half-maximal activity concentration (AC50) under setting [1] of 6.28 µM.
As for `Cc1ccc(C)c(C2NC(=O)c3ccccc3N2)c1` (stereo unspecified), under setting [1], the concentration at half-maximal activity (AC50) turned out to be 2.91 µM.
Still for that read-out and setting: then `N=c1sccn1CC(=O)Nc1ccc(S(N)(=O)=O)cc1`, with 14.9 µM; and `CC1=Nc2cc(C(=O)NCC3CCCO3)ccc2Sc2ccc(Br)cc21` (stereo unspecified), with 9.45 µM; and `Cc1cnc(NC(=O)CCc2ccccc2)s1`, with 6.6 µM.
Under setting [1], `CC1CCN(C(=O)c2ccc(S(=O)(=O)N3CCCC3)cc2)CC1` registered an AC50 of over 50 µM.
The compound `Cc1c(OCC(=O)NCCN2CCOCC2)ccc2c3c(c(=O)oc12)CCC3` had a concentration at half-maximal activity (AC50) under setting [1] of over 50 µM.
Turning to `C[C@@H]1CN([C@H](C)CO)C(=O)c2cc(NS(=O)(=O)c3ccc(Cl)cc3)ccc2O[C@@H]1CN(C)Cc1ccc(-c2ccccc2)cc1`, under setting [2], the concentration at half-maximal activity (AC50) was determined as 46.3 µM.
As to `COc1ccc2c(c1OC)OCC2C` (stereo unspecified), under setting [1], the AC50 amounted to 30.2 µM.
Consider `COc1ccc(-c2cc(=O)c3c(O)cc(O)cc3o2)cc1`, for which the AC50 under setting [1] is over 50 µM.
Consider `CCN(Cc1ccccc1)c1ccc(/C=N/N=C(N)N)cc1`, for which the half-maximal activity concentration (AC50) under setting [1] was found to be 4.74 µM.
`O=C(c1cccc(S(=O)(=O)N2CCN(c3ccc(F)cc3)CC2)c1)N1CCCC(C(F)(F)F)C1` (stereo unspecified) had a concentration at half-maximal activity (AC50) under setting [1] of 16 µM.
Consider `COc1ccc(Nc2nc3cc(-c4sccc4C)sc3c(=O)n2C)cc1OC`, for which the AC50 under setting [1] came out at 2.15 µM.
